Source: US20040002526A1, “Phospholipase D inhibitors and uses thereof” (Cell Therapeutics, Inc., priority 2002, published 2004)

Target: T1, PLD (phospholipase D)
T1 construct: fused on or other part: N-terminal polyhistidine tag (pFastBac HTc) on either enzyme
Test: In vitro assay of PLD activity ([3H]-choline release from labelled PC)
Assay type: biochemical, human
Conditions: Table 1, monocyclic thiazolidinones of Formula I; PLD isoform not stated; read-out: IC50
Protocol: Recombinant PLD1 and PLD2—Human PLD1 and PLD2 were isolated from Sf9 insect cells that had been infected with recombinant baculovirus vector, pFastBac™HTc vector (Life Technologies, Gaithersburg, Md.), containing PLD1 or PLD2 cDNAs.
PLD1 activity was assayed by measuring the generation of [^3H]-choline from [choline-methyl^3H](16:0, 16:0)PC.
The assay procedure for PLD2 was similar to that for PLD1, with the exception that arf1, PKC-α, and GTPγS were omitted from the reaction mixture. After addition of enzymes, the reactions were incubated for 1 hour at room temperature. Twenty microliters of 12% trichloroacetic acid (TCA) then were added to each sample, to stop the reaction and to precipitate the unreacted [choline-methyl^3H](16:0, 16:0)PC. Thereafter, the samples were passed through 0.65 μm Millipore 96 well filter plates to removed the excess [choline-methyl^3H](16:0, 16:0)PC. For each sample the filtrate (50 μl), which contained the [^3H]-choline released by PLD cleavage of PC, was analyzed using a TopCount™ Liquid Scintillation Counter, a product of Packard (Meriden, Conn.).

Compound	IC50 [µM]
Cc1ccc(CN2C(=O)/C(=C/c3ccc(-c4ccc(S(N)(=O)=O)cc4)o3)SC2=S)cc1 [Compound 38, 4-{5-[3-(4-methyl-benzyl)-4-oxo-2-thioxo-thiazolidin-5-ylidenemethyl]-furan-2-yl}-benzenesulfonamide]	6
N#Cc1ccc(-c2ccc(/C=C3\SC(=S)N(Cc4cccnc4)C3=O)o2)cc1 [Compound 39, 4-[5-(4-oxo-3-pyridin-3-ylmethyl-2-thioxo-thiazolidin-5-ylidenemethyl)-furan-2-yl]-benzonitrile]	4
CN(C)c1ccc(/C=C/C=C2\SC(=S)N(c3ccc(C(=O)O)cc3)C2=O)cc1 [Compound 40, 4-{5-[3-(4-dimethylamino-phenyl)-allylidene]-4-oxo-2-thioxo-thiazolidin-3-yl}-benzoic acid]	8
O=C(O)c1ccc(N2C(=O)/C(=C/c3cc4ccccc4o3)SC2=S)cc1 [Compound 41, 4-(5-benzofuran-2-ylmethylene-4-oxo-2-thioxo-thiazolidin-3-yl)-benzoic acid]	2

Same assay, conditions: Table 2, bicyclic thiazolidinones of Formula II; PLD isoform not stated; read-out: IC50

Compound	IC50 [µM]
CCOC(=O)C1=C(C)N=c2s/c(=C\c3ccc(-c4ccc(C(=O)O)cc4)o3)c(=O)n2C1c1ccc(OC)c(OC)c1 (stereo not shown) [Compound 42, 2-[5-(4-Carboxy-phenyl)-furan-2-ylmethylene]-5-(3,4-dimethoxy-phenyl)-7-methyl-3-oxo-2,3-dihydro-5H-thiazolo[3,2-a]pyrimidine-6-carboxylic acid ethyl ester]	4.5
CCOC(=O)C1=C(C)N=c2s/c(=C\c3ccc(-c4ccc(C(=O)O)cc4)o3)c(=O)n2C1c1ccc(N(C)C)cc1 (stereo not shown) [Compound 43, 2-[5-(4-Carboxy-phenyl)-furan-2-ylmethylene]-5-(4-dimethylamino-phenyl)-7-methyl-3-oxo-2,3-dihydro-5H-thiazolo[3,2-a]pyrimidine-6-carboxylic acid ethyl ester]	2.7
CCOC(=O)C1=C(C)N=c2s/c(=C\c3ccc(-c4ccc(C(=O)O)cc4)o3)c(=O)n2C1c1ccc2c(c1)OCO2 (stereo not shown) [Compound 44, 5-Benzo[1,3]dioxol-5-yl-2-[5-(4-carboxy-phenyl)-furan-2-ylmethylene]-7-methyl-3-oxo-2,3-dihydro-5H-thiazolo[3,2-a]pyrimidine-6-carboxylic acid ethyl ester]	2.3
CCOC(=O)C1=C(C)N=c2s/c(=C\c3ccc(-c4ccc(Cl)c(C(=O)O)c4)o3)c(=O)n2C1c1ccc(N(C)C)cc1 (stereo not shown) [Compound 45, 2-[5-(3-Carboxy-4-chloro-phenyl)-furan-2-ylmethylene]-5-(4-dimethylamino-phenyl)-7-methyl-3-oxo-2,3-dihydro-5H-thiazolo[3,2-a]pyrimidine-6-carboxylic acid ethyl ester]	1.9
CCOC(=O)C1=C(C)N=c2s/c(=C\c3ccc(-c4cccc(C(=O)O)c4)o3)c(=O)n2C1c1ccccc1 (stereo not shown) [Compound 46, 2-[5-(3-Carboxy-phenyl)-furan-2-ylmethylene]-7-methyl-3-oxo-5-phenyl-2,3-dihydro-5H-thiazolo[3,2-a]pyrimidine-6-carboxylic acid ethyl ester]	4.3
CCOC(=O)C1=C(C)N=c2s/c(=C\c3ccc(-c4cccc(C(=O)O)c4)o3)c(=O)n2C1c1ccc(OC)cc1 (stereo not shown) [Compound 47, 2-[5-(3-Carboxy-phenyl)-furan-2-ylmethylene]-5-(4-methoxy-phenyl)-7-methyl-3-oxo-2,3-dihydro-5H-thiazolo[3,2-a]pyrimidine-6-carboxylic acid ethyl ester]	2
CCOC(=O)C1=C(C)N=c2s/c(=C\c3ccc(-c4ccc(C(=O)O)cc4)o3)c(=O)n2C1c1ccc(C)cc1 (stereo not shown) [Compound 48]	3.5
CCOC(=O)C1=C(C)N=c2s/c(=C\c3ccc(-c4cccc(C(=O)O)c4)o3)c(=O)n2C1c1ccc(C)cc1 (stereo not shown) [Compound 49, 2-[5-(3-Carboxy-phenyl)-furan-2-ylmethylene]-7-methyl-3-oxo-5-p-tolyl-2,3-dihydro-5H-thiazolo[3,2-a]pyrimidine-6-carboxylic acid ethyl ester]	2.8
CCOC(=O)C1=C(C)N=c2s/c(=C\c3ccc(-c4ccc(C(=O)O)cc4)o3)c(=O)n2C1c1ccc(Cl)cc1 (stereo not shown) [Compound 50, 2-[5-(4-Carboxy-phenyl)-furan-2-ylmethylene]-5-(4-chloro-phenyl)-7-methyl-3-oxo-2,3-dihydro-5H-thiazolo[3,2-a]pyrimidine-6-carboxylic acid ethyl ester]	3.4
CCOC(=O)C1=C(C)N=c2s/c(=C\c3ccc(-c4cccc(C(=O)O)c4)o3)c(=O)n2C1c1ccc2c(c1)OCO2 (stereo not shown) [Compound 51, 5-Benzo[1,3]dioxol-5-yl-2-[5-(3-carboxy-phenyl)-furan-2-ylmethylene]-7-methyl-3-oxo-2,3-dihydro-5H-thiazolo[3,2-a]pyrimidine-6-carboxylic acid ethyl ester]	2.7
CCOC(=O)C1=C(C)N=c2s/c(=C\c3ccc(-c4cccc(C(=O)O)c4)o3)c(=O)n2C1c1ccccc1Cl (stereo not shown) [Compound 52, 2-[5-(3-Carboxy-phenyl)-furan-2-ylmethylene]-5-(2-chloro-phenyl)-7-methyl-3-oxo-2,3-dihydro-5H-thiazolo[3,2-a]pyrimidine-6-carboxylic acid ethyl ester]	4
CCOC(=O)C1=C(C)N=c2s/c(=C\c3ccc(-c4cccc(C(=O)O)c4)o3)c(=O)n2C1c1ccc(N(C)C)cc1 (stereo not shown) [Compound 55, 2-[5-(3-Carboxy-phenyl)-furan-2-ylmethylene]-5-(4-dimethylamino-phenyl)-7-methyl-3-oxo-2,3-dihydro-5H-thiazolo[3,2-a]pyrimidine-6-carboxylic acid ethyl ester]	0.7
CCOC(=O)C1=C(C)N=c2s/c(=C/c3ccc(-c4ccc(Cl)c(C(=O)O)c4)o3)c(=O)n2C1c1ccccc1OC (stereo not shown) [Compound 56, 2-[5-(3-Carboxy-4-chloro-phenyl)-furan-2-ylmethylene]-5-(2-methoxy-phenyl)-7-methyl-3-oxo-2,3-dihydro-5H-thiazolo[3,2-a]pyrimidine-6-carboxylic acid ethyl ester]	2.6
CCOC(=O)C1=C(C)N=c2s/c(=C\c3ccc(-c4ccc(C(=O)O)cc4)o3)c(=O)n2C1c1c(OC)ccc2ccccc12 (stereo not shown) [Compound 57, 2-[5-(4-Carboxy-phenyl)-furan-2-ylmethylene]-5-(2-methoxy-naphthalen-1-yl)-7-methyl-3-oxo-2,3-dihydro-5H-thiazolo[3,2-a]pyrimidine-6-carboxylic acid ethyl ester]	3.7
CCOC(=O)C1=C(C)N=c2s/c(=C\c3ccc(-c4ccccc4C(=O)O)o3)c(=O)n2C1c1ccc(SC)cc1 (stereo not shown) [Compound 58, 2-[5-(2-Carboxy-phenyl)-furan-2-ylmethylene]-7-methyl-5-(4-methylsulfanyl-phenyl)-3-oxo-2,3-dihydro-5H-thiazolo[3,2-a]pyrimidine-6-carboxylic acid ethyl ester]	4
CCOC(=O)C1=C(C)N=c2s/c(=C/c3ccc(-c4cccc(C(=O)O)c4)o3)c(=O)n2C1c1ccccc1OC (stereo not shown) [Compound 59, 2-[5-(3-Carboxy-phenyl)-furan-2-ylmethylene]-5-(2-methoxy-phenyl)-7-methyl-3-oxo-2,3-dihydro-5H-thiazolo[3,2-a]pyrimidine-6-carboxylic acid ethyl ester]	4.1

Same assay, conditions: Table 3, tricyclic thiazolidinones of Formula II; PLD isoform not stated; read-out: IC50

Compound	IC50 [µM]
Cc1cc2nc3s/c(=C\c4ccc(-c5ccc(O)c(C(=O)O)c5)o4)c(=O)n3c2cc1C [Compound 60, 5-[5-(6,7-Dimethyl-3-oxo-benzo[4,5]imidazo[2,1-b]thiazol-2-ylidenemethyl)-furan-2-yl]-2-hydroxy-benzoic acid]	3.6
Cc1cc2nc3s/c(=C/c4ccc(-c5cccc(C(=O)O)c5)o4)c(=O)n3c2cc1C [Compound 61, 3-[5-(6,7-Dimethyl-3-oxo-benzo[4,5]imidazo[2,1-b]thiazol-2-ylidenemethyl)-furan-2-yl]-benzoic acid]	3.4
